PubChem BioAssay AID1259407 (Chemical Carcinogenesis Research Information System (CCRIS), 2018)
Active and inactive are the calls of the source. No rule for the calls is given here.

Tested on: CCRIS mutagenicity, Ames/micronucleus/aberration tests
Experiment: CCRIS mutagenicity studies
[1] = Test System: AMES SALMONELLA TYPHIMURIUM, Strain/Indicator: TA100, Metabolic Activation: NONE, Method: STANDARD PLATE

`CCCCCCCCCCCC[N+](C)(C)COCCCCCCCC` was tested, and the mutagenic call (Test System: BACILLUS SUBTILIS, Strain/Indicator: H17/REC, Metabolic Activation: NONE, Method: STANDARD PLATE) was “inactive; negative” and the mutagenic call (Test System: BACILLUS SUBTILIS, Strain/Indicator: M45, Metabolic Activation: NONE, Method: STANDARD PLATE) was “inactive; negative”.

With `O=C/C(Br)=C(/Br)C(=O)O` the mutagenic call (End Point: In vitro micronucleus, Test System: Human lymphocytes, Metabolic Activation: None) was “inactive; negative” and the mutagenic call [1] was “active; positive”.

With `COc1c(O)cc2c3c(cc4ccccc4c13)NC2=O` the mutagenic call (Test System: AMES SALMONELLA TYPHIMURIUM, Strain/Indicator: TM677/8-AZAGUANINE, Metabolic Activation: NONE, Method: SUSPENSION/PLATE) was “inactive; negative”.

In the case of `O=[N+]([O-])c1ccc(Cl)cc1Cl`, the mutagenic call (End Point: IN VITRO CHROMOSOMAL ABERRATIONS, Test System: CHL CELLS, Metabolic Activation: RAT, LIVER, S-9, SODIUM PHENOBARBITAL AND 5,6-BENZOFLAVONE) is reported as “active; positive (structural changes); authors report equivocal results for ploidy chang”, the mutagenic call (Test System: AMES SALMONELLA TYPHIMURIUM, Strain/Indicator: TA98, Metabolic Activation: NONE, Method: PREINCUBATION) is reported as “inactive; negative” and the mutagenic call (Test System: AMES SALMONELLA TYPHIMURIUM, Strain/Indicator: TA98, Metabolic Activation: RAT, LIVER, S-9, KANECHLOR 500, Method: PREINCUBATION) is reported as “inactive; negative”. For the same molecule, the mutagenic call (Test System: AMES SALMONELLA TYPHIMURIUM, Strain/Indicator: TA100, Metabolic Activation: NONE, Method: PREINCUBATION) was “active; positive”, the mutagenic call [1] was “inactive; negative” and the mutagenic call (Test System: AMES SALMONELLA TYPHIMURIUM, Strain/Indicator: TA100, Metabolic Activation: RAT LIVER S-9, PHENOBARBITAL AND BETA-NAPHTHOFLAVONE, Method: PREINCUBATION) was “active; positive”. For the same molecule, the mutagenic call (Test System: AMES SALMONELLA TYPHIMURIUM, Strain/Indicator: TA100, Metabolic Activation: RAT, LIVER, S-9, KANECHLOR 500, Method: PREINCUBATION) was “active; positive”, the mutagenic call (Test System: AMES SALMONELLA TYPHIMURIUM, Strain/Indicator: TA1535, Metabolic Activation: RAT LIVER S-9, PHENOBARBITAL AND BETA-NAPHTHOFLAVONE, Method: PREINCUBATION) was “inactive; negative” and the mutagenic call (Test System: AMES SALMONELLA TYPHIMURIUM, Strain/Indicator: TA1537, Metabolic Activation: RAT LIVER S-9, PHENOBARBITAL AND BETA-NAPHTHOFLAVONE, Method: PREINCUBATION) was “inactive; negative”. For the same molecule, the mutagenic call (Test System: E.COLI, Strain/Indicator: WP2UVRA, Metabolic Activation: NONE, Method: PREINCUBATION) was “inactive; negative” and the mutagenic call (Test System: E.COLI, Strain/Indicator: WP2UVRA, Metabolic Activation: RAT LIVER S-9, PHENOBARBITAL AND BETA-NAPHTHOFLAVONE, Method: PREINCUBATION) was “inactive; negative”.

For `O=[Si]=O`, the mutagenic call (Test System: AMES SALMONELLA TYPHIMURIUM, Strain/Indicator: TA98, Metabolic Activation: NONE, Method: STANDARD PLATE) was “inactive; negative”, the mutagenic call (Test System: AMES SALMONELLA TYPHIMURIUM, Strain/Indicator: TA98, Metabolic Activation: RAT, LIVER, S-9, AROCLOR 1254, Method: STANDARD PLATE) was “inactive; negative” and the mutagenic call [1] was “inactive; negative”. The mutagenic call (Test System: AMES SALMONELLA TYPHIMURIUM, Strain/Indicator: TA100, Metabolic Activation: RAT, LIVER, S-9, AROCLOR 1254, Method: STANDARD PLATE) was “inactive; negative”, the mutagenic call (Test System: AMES SALMONELLA TYPHIMURIUM, Strain/Indicator: TA1535, Metabolic Activation: NONE, Method: STANDARD PLATE) was “inactive; negative” and the mutagenic call (Test System: AMES SALMONELLA TYPHIMURIUM, Strain/Indicator: TA1535, Metabolic Activation: RAT, LIVER, S-9, AROCLOR 1254, Method: STANDARD PLATE) was “inactive; negative”. For the same molecule, the mutagenic call (Test System: AMES SALMONELLA TYPHIMURIUM, Strain/Indicator: TA1537, Metabolic Activation: NONE, Method: STANDARD PLATE) was “inactive; negative”, the mutagenic call (Test System: AMES SALMONELLA TYPHIMURIUM, Strain/Indicator: TA1537, Metabolic Activation: RAT, LIVER, S-9, AROCLOR 1254, Method: STANDARD PLATE) was “inactive; negative” and the mutagenic call (Test System: AMES SALMONELLA TYPHIMURIUM, Strain/Indicator: TA1538, Metabolic Activation: NONE, Method: STANDARD PLATE) was “inactive; negative”. The mutagenic call (Test System: AMES SALMONELLA TYPHIMURIUM, Strain/Indicator: TA1538, Metabolic Activation: RAT, LIVER, S-9, AROCLOR 1254, Method: STANDARD PLATE) was “inactive; negative”, the mutagenic call (Test System: E. COLI, Strain/Indicator: WP2, Metabolic Activation: NONE, Method: STANDARD PLATE) was “inactive; negative” and the mutagenic call (Test System: E. COLI, Strain/Indicator: WP2, Metabolic Activation: RAT, LIVER, S-9, AROCLOR 1254, Method: STANDARD PLATE) was “inactive; negative”. The mutagenic call (Test System: HUMAN-HAMSTER HYBRID AL CELLS, Strain/Indicator: AL CELLS (HPRT), Metabolic Activation: NONE, Method: PREINCUBATION) was “active; positive”.
